What was measured:
[1] = Test on stability in mediums in vitro (buffer solutions with different pH, simulated intestinal fluid, simulated gastric fluid); type: physicochemical
Procedure: At 37° C., Compound 17 was incubated in different mediums (buffer solutions with different pH, a simulated intestinal fluid containing pancreatin, and simulated gastric fluid containing pepsin).
(§1) Other typical example compounds were tested for stability according to the above method, and the test results are shown in Table 8 below.

[2] = test system: colon flora; assay: Stability in the presence of colon flora (content in colon of rat); type: in vitro ADME, SD rat; conditions: male, rat, pH 6.8
Procedure: A phosphate buffer solution with a pH of 7.0 was formulated, and then CO2 was introduced to the solution to adjust the pH to 6.8. Then, the content in colon of a male SD rat (body weight: 180-220 g) was placed in a water bath at 37° C., and added into the phosphate buffer solution with a pH of 6.8 as prepared above under the protection of N2 to a concentration of 20% (w/v). The buffer solution was kept in an oxygen-free environment. Then, the test Compound 17 was added to the buffer solution, and the solution was stirred uniformly.
Supernatant was analyzed with HPLC, where the amount of each ingredient was calculated by normalization.
Note: in the above table, “T14.148 (%)” represents the percentage of peak area of the material with a retention time of 14.148 min “T14.713 (%)” represents the percentage of peak area of the material with a retention time of 14.713 min. “T16.392 (%)” represents the percentage of peak area of the material with a retention time of 16.392 min. “T22.624 (%)” represents the percentage of peak area of the material with a retention time of 22.624 min.
as §1

[3] = Simulated intestinal fluid (containing pancreatin) (pH 6.8) (8 h)

## C[C@]12C=CC(=O)C=C1CC[C@@H]1[C@@H]2C(=O)C[C@@]2(C)[C@H]1CC[C@]2(O)C(=O)COC1(CO)O[C@H](CO)[C@@H](O[C@@H]2O[C@H](CO)[C@H](O)[C@H](O)[C@H]2O)[C@@H]1O (stereo partly drawn) [Compound 17, 17-hydroxyl-21-{[4-O-(β-D-galactopyranosyl)-D-fructofuranosyl]oxy}pregna-1,4-diene-3,11,20-trione]
[1]; Acetate buffer solution, pH 4.0, 37° C., 0 h
  Compound 17 (%): 99.6%
[1]; Acetate buffer solution, pH 4.0, 37° C., 0.5 h
  Compound 17 (%): 99.6%
[1]; Acetate buffer solution, pH 4.0, 37° C., 1 h
  Compound 17 (%): 99.5%
[1]; Acetate buffer solution, pH 4.0, 37° C., 1.5 h
  Compound 17 (%): 99.4%
[1]; Acetate buffer solution, pH 4.0, 37° C., 4 h
  Compound 17 (%): 99.2%
[1]; Acetate buffer solution, pH 4.0, 37° C., 20 h
  Compound 17 (%): 97.1%
[1]; Acetate buffer solution, pH 4.0, 37° C., 24 h
  Compound 17 (%): 96.5%
[1]; Hydrochloric acid solution, pH 1.2, 37° C., 0 h
  Compound 17 (%): 96.0%
[1]; Hydrochloric acid solution, pH 1.2, 37° C., 0.5 h
  Compound 17 (%): 47.1%
[1]; Hydrochloric acid solution, pH 1.2, 37° C., 1 h
  Compound 17 (%): 22.1%
[1]; Hydrochloric acid solution, pH 1.2, 37° C., 2 h
  Compound 17 (%): 4.5%
[1]; Hydrochloric acid solution, pH 1.2, 37° C., 3 h
  Compound 17 (%): 1.0%
[1]; Hydrochloric acid solution, pH 2.0, 37° C., 0 h
  Compound 17 (%): 99.7%
[1]; Hydrochloric acid solution, pH 2.0, 37° C., 0.5 h
  Compound 17 (%): 93.3%
[1]; Hydrochloric acid solution, pH 2.0, 37° C., 1 h
  Compound 17 (%): 86.5%
[1]; Hydrochloric acid solution, pH 2.0, 37° C., 1.5 h
  Compound 17 (%): 80.1%
[1]; Hydrochloric acid solution, pH 2.0, 37° C., 2 h
  Compound 17 (%): 74.6%
[1]; Hydrochloric acid solution, pH 2.0, 37° C., 3 h
  Compound 17 (%): 64.5%
[1]; Hydrochloric acid solution, pH 2.0, 37° C., 4 h
  Compound 17 (%): 55.3%
[1]; Hydrochloric acid solution, pH 2.0, 37° C., 8 h
  Compound 17 (%): 30.8%
[1]; Hydrochloric acid solution, pH 2.0, 37° C., 24 h
  Compound 17 (%): 2.5%
[1]; Phosphate buffer solution, pH 5.8, 37° C., 0 h
  Compound 17 (%): 99.5%
[1]; Phosphate buffer solution, pH 5.8, 37° C., 1 h
  Compound 17 (%): 97.3%
[1]; Phosphate buffer solution, pH 5.8, 37° C., 6 h
  Compound 17 (%): 99.4%
[1]; Phosphate buffer solution, pH 5.8, 37° C., 8 h
  Compound 17 (%): 99.5%
[1]; Phosphate buffer solution, pH 5.8, 37° C., 33 h
  Compound 17 (%): 99.3%
[1]; Phosphate buffer solution, pH 6.8, 37° C., 0 h
  Compound 17 (%): 97.3%
[1]; Phosphate buffer solution, pH 6.8, 37° C., 1 h
  Compound 17 (%): 97.5%
[1]; Phosphate buffer solution, pH 6.8, 37° C., 6 h
  Compound 17 (%): 99.0%
[1]; Phosphate buffer solution, pH 6.8, 37° C., 8 h
  Compound 17 (%): 99.0%
[1]; Phosphate buffer solution, pH 6.8, 37° C., 33 h
  Compound 17 (%): 97.6%
[1]; Phosphate buffer solution, pH 7.8, 37° C., 0 h
  Compound 17 (%): 97.5%
[1]; Phosphate buffer solution, pH 7.8, 37° C., 1 h
  Compound 17 (%): 97.6%
[1]; Phosphate buffer solution, pH 7.8, 37° C., 6 h
  Compound 17 (%): 97.6%
[1]; Phosphate buffer solution, pH 7.8, 37° C., 8 h
  Compound 17 (%): 97.6%
[1]; Phosphate buffer solution, pH 7.8, 37° C., 33 h
  Compound 17 (%): 97.7%
[1]; Simulated gastric fluid (containing pepsin) (pH 2.0), 37° C., 0 h
  Compound 17 (%): 97.0%
[1]; Simulated gastric fluid (containing pepsin) (pH 2.0), 37° C., 0.5 h
  Compound 17 (%): 53.6%
[1]; Simulated gastric fluid (containing pepsin) (pH 2.0), 37° C., 1 h
  Compound 17 (%): 28.9%
[1]; Simulated gastric fluid (containing pepsin) (pH 2.0), 37° C., 1.5 h
  Compound 17 (%): 15.6%
[1]; Simulated gastric fluid (containing pepsin) (pH 2.0), 37° C., 2 h
  Compound 17 (%): 7.0%
[1]; Simulated gastric fluid (containing pepsin) (pH 2.0), 37° C., 3 h
  Compound 17 (%): 2.1%
[1]; Simulated intestinal fluid (containing pancreatin) (pH 6.8), 37° C., 0 h
  Compound 17 (%): 97.6%
[1]; Simulated intestinal fluid (containing pancreatin) (pH 6.8), 37° C., 1 h
  Compound 17 (%): 97.4%
[1]; Simulated intestinal fluid (containing pancreatin) (pH 6.8), 37° C., 6 h
  Compound 17 (%): 97.7%
[1]; Simulated intestinal fluid (containing pancreatin) (pH 6.8), 37° C., 8 h
  Compound 17 (%): 97.7%
[1]; Simulated intestinal fluid (containing pancreatin) (pH 6.8), 37° C., 33 h
  Compound 17 (%): 96.2%
[1]; Water (pH 6.2), 37° C., 0 h
  Compound 17 (%): 97.6%
[1]; Water (pH 6.2), 37° C., 1 h
  Compound 17 (%): 97.6%
[1]; Water (pH 6.2), 37° C., 6 h
  Compound 17 (%): 97.6%
[1]; Water (pH 6.2), 37° C., 8 h
  Compound 17 (%): 98.2%
[1]; Water (pH 6.2), 37° C., 33 h
  Compound 17 (%): 98.0%
[1]; pH 2.0 or higher, within 1.5 hours, 37° C.
  percentage of remaining Compound 17: greater than 80%
[2]; SD, 0 h
  Compound 17 (%): 84.8%
  T14.148 (%) (percentage of peak area of the material with a retention time of 14.148 min): 13.5%
  T22.624 (%) (percentage of peak area of the material with a retention time of 22.624 min): 0.0%
[2]; SD, 1 h
  Compound 17 (%): 49.0%
  T14.148 (%) (percentage of peak area of the material with a retention time of 14.148 min): 42.5%
  T22.624 (%) (percentage of peak area of the material with a retention time of 22.624 min): 0.0%
[2]; SD, 2 h
  Compound 17 (%): 25.3%
  T22.624 (%) (percentage of peak area of the material with a retention time of 22.624 min): 0.0%
[2]; SD, 3 h
  T22.624 (%) (percentage of peak area of the material with a retention time of 22.624 min): 0.0%
[2]; SD, 20 h
  Compound 17 (%): 0.0%
  T22.624 (%) (percentage of peak area of the material with a retention time of 22.624 min): 7.8%
[2]; Sprague-Dawley (SD), 0 h
  Prednisone (%) (released from Compound 17): 1.7%
  T14.713 (%) (percentage of peak area of the material with a retention time of 14.713 min): 0.0%
  T16.392 (%) (percentage of peak area of the material with a retention time of 16.392 min): 0.0%
[2]; Sprague-Dawley (SD), 1 h
  Prednisone (%) (released from Compound 17): 8.1%
  T14.713 (%) (percentage of peak area of the material with a retention time of 14.713 min): 0.0%
  T16.392 (%) (percentage of peak area of the material with a retention time of 16.392 min): 0.0%
[2]; Sprague-Dawley (SD), 2 h
  Prednisone (%) (released from Compound 17): 14.7%
  T14.148 (%) (percentage of peak area of the material with a retention time of 14.148 min): 59.1%
  T14.713 (%) (percentage of peak area of the material with a retention time of 14.713 min): 0.0%
  T16.392 (%) (percentage of peak area of the material with a retention time of 16.392 min): 0.0%
[2]; Sprague-Dawley (SD), 3 h
  Prednisone (%) (released from Compound 17): 21.2%
  T14.148 (%) (percentage of peak area of the material with a retention time of 14.148 min): 65.5%
  T14.713 (%) (percentage of peak area of the material with a retention time of 14.713 min): 0.0%
  T16.392 (%) (percentage of peak area of the material with a retention time of 16.392 min): 0.0%
[2]; Sprague-Dawley (SD), 20 h
  Prednisone (%) (released from Compound 17): 39.7%
  T14.148 (%) (percentage of peak area of the material with a retention time of 14.148 min): 12.7%
  T14.713 (%) (percentage of peak area of the material with a retention time of 14.713 min): 19.2%
  T16.392 (%) (percentage of peak area of the material with a retention time of 16.392 min): 6.4%
[2]; Sprague-Dawley, 3 h
  Compound 17 (%): 11.3%
  percentage of the compound degraded: about 90%

## C[C@@H]1C[C@H]2[C@@H]3CCC4=CC(=O)C=C[C@]4(C)[C@@]3(F)[C@@H](O)C[C@]2(C)[C@@]1(O)C(=O)COC1(CO)O[C@H](CO)[C@@H](O[C@@H]2O[C@H](CO)[C@H](O)[C@H](O)[C@H]2O)[C@@H]1O (stereo partly drawn) [Compound 4, (11β,16α)-9-fluoro-11,17-dihydroxyl-16-methyl-21-{[4-O-(β-D-galactopyranosyl)-D-fructofuranosyl]oxy}pregna-1,4-diene-3,20-dione]
[1]; [3]
  Percentage of the example compound remaining (Composition, %): 99.4%
  Percentage of the released active drug (prednisolone, dexamethasone, budesonide, apremilast or prucalopride) (Composition, %): 0%
[1]; Water (pH 1.2) (2 h)
  Percentage of the example compound remaining (Composition, %): 25.0%
  Percentage of the released active drug (prednisolone, dexamethasone, budesonide, apremilast or prucalopride) (Composition, %): 72.7%
[2]; Sprague-Dawley (SD), 1 h
  Percentage of the example compound remaining (Composition, %): 15.6%
  Percentage of the released active drug (prednisolone, dexamethasone, budesonide, apremilast or prucalopride) (Composition, %): 50.3%
